The results in this text go back to patent US10414811B2, “Protease-resistant lipidated GLP-1 analogs” (MEDIMMUNE LIMITED, priority 2015, dated 2019).

Where two headings read alike, the source gives them in different places.

Format in all cases: cell-based
In experiment [1] the target is T1, human GLP-1 receptor (GLP-1R) (Homo sapiens, UniProt P43220).
T1 construct: expressed in transfected cells
Kind of experiment: cAMP assay, human GLP-1R cells. The procedure, abridged: (§1)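 Peptide-stimulated cAMP measured by two-step HTRF after a 30 min room-temperature incubation with receptor-expressing cells (hGLP-1R, hGIPR at 1×10^5 cells/ml; hGCGR at 2×10^5 cells/ml). Duplicate dilutions; EC50 from 4-parameter logistic fit of % Delta F.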

Experiment [2] concerns the target T2, human glucagon receptor (GCGR) (Homo sapiens, UniProt P47871).
T2 construct: expressed in transfected cells
Nature of the experiment: cAMP assay, human GCGR cells. Particulars: cAMP assay. Summed up: as §1

The target of experiment [3] is T3, human glucose-dependent insulinotropic peptide receptor (GIPR) (Homo sapiens, UniProt P48546).
T3 construct: expressed in transfected cells
T3 sequence (P48546 22-466): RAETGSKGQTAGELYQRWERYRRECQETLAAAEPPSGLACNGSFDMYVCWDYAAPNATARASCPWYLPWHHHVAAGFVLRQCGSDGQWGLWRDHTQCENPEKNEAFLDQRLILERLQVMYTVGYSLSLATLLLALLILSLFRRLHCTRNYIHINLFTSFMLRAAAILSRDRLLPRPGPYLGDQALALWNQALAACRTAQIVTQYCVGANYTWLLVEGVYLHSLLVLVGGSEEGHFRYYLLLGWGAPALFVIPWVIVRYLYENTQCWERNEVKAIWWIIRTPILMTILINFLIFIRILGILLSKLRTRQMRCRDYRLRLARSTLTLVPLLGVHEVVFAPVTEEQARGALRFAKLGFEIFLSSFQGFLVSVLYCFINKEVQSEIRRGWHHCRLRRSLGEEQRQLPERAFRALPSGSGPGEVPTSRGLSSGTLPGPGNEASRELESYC
Nature of the experiment: cAMP assay, human GIPR cells. Particulars: cAMP assay. Summed up:
as §1

[4] abbreviates: cAMP assay, first determination (n1), read-out: Primary assay EC50 GLP-1R n1.
Setting [5] is: cAMP assay, second determination (n2), read-out: Primary assay EC50 GLP-1R n2.
Setting [6] is: mean of n1 and n2, read-out: Mean pM GLP-1R.
The mark [7] stands for this setting: first determination (n1), read-out: Primary assay EC50 Gluc-R (n1).
Where [8] appears, read: second determination (n2), read-out: Primary assay EC50 Gluc-R (n2).
Setting [9] is: first determination (n1), read-out: Primary assay EC50 GIP-R (n1).
[10] abbreviates: second determination (n2), read-out: Primary assay EC50 GIP-R (n2).

T2 sequence (P47871 26-477): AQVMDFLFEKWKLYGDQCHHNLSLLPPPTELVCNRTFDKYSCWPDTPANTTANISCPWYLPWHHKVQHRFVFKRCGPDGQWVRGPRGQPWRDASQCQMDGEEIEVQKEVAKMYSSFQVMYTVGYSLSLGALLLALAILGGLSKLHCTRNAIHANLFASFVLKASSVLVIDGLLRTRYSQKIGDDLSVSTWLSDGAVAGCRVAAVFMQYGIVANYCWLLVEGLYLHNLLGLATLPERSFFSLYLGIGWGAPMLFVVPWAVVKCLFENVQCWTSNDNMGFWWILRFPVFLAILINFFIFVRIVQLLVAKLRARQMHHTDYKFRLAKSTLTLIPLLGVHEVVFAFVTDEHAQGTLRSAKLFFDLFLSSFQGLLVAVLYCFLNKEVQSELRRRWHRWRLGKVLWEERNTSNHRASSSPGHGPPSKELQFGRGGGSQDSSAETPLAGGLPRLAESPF
T1 sequence (P43220 24-463): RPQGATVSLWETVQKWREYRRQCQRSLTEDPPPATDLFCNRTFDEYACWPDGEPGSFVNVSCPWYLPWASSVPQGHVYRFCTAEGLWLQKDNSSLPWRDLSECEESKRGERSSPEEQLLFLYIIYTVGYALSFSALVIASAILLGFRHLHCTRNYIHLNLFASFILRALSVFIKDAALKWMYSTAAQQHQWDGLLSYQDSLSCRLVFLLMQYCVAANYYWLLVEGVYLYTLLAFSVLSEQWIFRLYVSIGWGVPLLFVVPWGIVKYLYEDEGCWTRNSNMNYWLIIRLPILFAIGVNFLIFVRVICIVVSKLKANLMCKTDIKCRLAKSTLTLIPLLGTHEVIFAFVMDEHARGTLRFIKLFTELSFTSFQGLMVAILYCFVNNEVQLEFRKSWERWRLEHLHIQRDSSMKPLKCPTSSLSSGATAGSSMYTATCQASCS

`CCCCCCCCCCCCCCCCCC(=O)NCCCCCC(=O)NCCCC[C@H](NC(=O)[C@H](C)NC(=O)[C@H](C)NC(=O)[C@H](CCC(=O)O)NC(=O)CNC(=O)[C@H](CCC(=O)O)NC(=O)[C@H](CC(C)C)NC(=O)[C@](C)(Cc1ccccc1)NC(=O)[C@H](CO)NC(=O)[C@](C)(CO)NC(=O)[C@@H](NC(=O)[C@H](CC(=O)O)NC(=O)[C@H](CO)NC(=O)[C@@H](NC(=O)[C@](C)(Cc1ccccc1)NC(=O)[C@H](CO)NC(=O)CNC(=O)[C@H](CCC(=O)O)NC(=O)C(C)(C)NC(=O)[C@@H](N)Cc1c[nH]cn1)[C@@H](C)O)C(C)C)C(=O)N[C@@H](CCC(=O)O)C(=O)N[C@@](C)(Cc1ccccc1)C(=O)N[C@H](C(=O)N[C@@H](C)C(=O)N[C@@](C)(Cc1ccccc1)C(=O)N[C@H](C(=O)N[C@H](C(=O)N[C@@](C)(CCCCN)C(=O)NCC(=O)NCC(N)=O)C(C)C)C(C)C)[C@@H](C)CC` [compound 149]: the EC50 in experiment [1] (setting [4]) was 81 pM; in experiment [1] (setting [5]), 51 pM; in experiment [1] (setting [6]), 66.2 pM; in experiment [2] (setting [7]), no less than 28 nM; in experiment [2] (setting [8]), no less than 28 nM; in experiment [3] (setting [9]) it was no less than 28 nM. For the same molecule, the EC50 in experiment [3] (setting [10]) is no less than 28 nM.
Consider `CCCCCCCCCCCCCCCCCC(=O)NCCCCCC(=O)NCCCCCC(=O)NCCCC[C@H](NC(=O)[C@H](C)NC(=O)[C@H](C)NC(=O)[C@H](CCC(=O)O)NC(=O)CNC(=O)[C@H](CCC(=O)O)NC(=O)[C@H](CC(C)C)NC(=O)[C@](C)(Cc1ccccc1)NC(=O)[C@H](CO)NC(=O)[C@](C)(CO)NC(=O)[C@@H](NC(=O)[C@H](CC(=O)O)NC(=O)[C@H](CO)NC(=O)[C@@H](NC(=O)[C@](C)(Cc1ccccc1)NC(=O)[C@H](CO)NC(=O)CNC(=O)[C@H](CCC(=O)O)NC(=O)C(C)(C)NC(=O)[C@@H](N)Cc1c[nH]cn1)[C@@H](C)O)C(C)C)C(=O)N[C@@H](CCC(=O)O)C(=O)N[C@@](C)(Cc1ccccc1)C(=O)N[C@H](C(=O)N[C@@H](C)C(=O)N[C@@](C)(Cc1ccccc1)C(=O)N[C@H](C(=O)N[C@H](C(=O)N[C@@](C)(CCCCN)C(=O)NCC(=O)NCC(N)=O)C(C)C)C(C)C)[C@@H](C)CC` [compound 150], for which the EC50 in experiment [1] (setting [4]) was 28 pM; in experiment [1] (setting [5]) it was 22 pM; in experiment [1] (setting [6]), 25.4 pM; in experiment [2] (setting [7]), no less than 27 nM; in experiment [2] (setting [8]) it was no less than 27 nM; in experiment [3] (setting [9]), no less than 27 nM. For the same molecule, the EC50 in experiment [3] (setting [10]) is no less than 27 nM.
On to `CCCCCCCCCCCCCCCCCC(=O)NCCCCCC(=O)NCCCCCC(=O)NCCCCCC(=O)NCCCC[C@H](NC(=O)[C@H](C)NC(=O)[C@H](C)NC(=O)[C@H](CCC(=O)O)NC(=O)CNC(=O)[C@H](CCC(=O)O)NC(=O)[C@H](CC(C)C)NC(=O)[C@](C)(Cc1ccccc1)NC(=O)[C@H](CO)NC(=O)[C@](C)(CO)NC(=O)[C@@H](NC(=O)[C@H](CC(=O)O)NC(=O)[C@H](CO)NC(=O)[C@@H](NC(=O)[C@](C)(Cc1ccccc1)NC(=O)[C@H](CO)NC(=O)CNC(=O)[C@H](CCC(=O)O)NC(=O)C(C)(C)NC(=O)[C@@H](N)Cc1c[nH]cn1)[C@@H](C)O)C(C)C)C(=O)N[C@@H](CCC(=O)O)C(=O)N[C@@](C)(Cc1ccccc1)C(=O)N[C@H](C(=O)N[C@@H](C)C(=O)N[C@@](C)(Cc1ccccc1)C(=O)N[C@H](C(=O)N[C@H](C(=O)N[C@@](C)(CCCCN)C(=O)NCC(=O)NCC(N)=O)C(C)C)C(C)C)[C@@H](C)CC` [compound 151], for which the EC50 in experiment [1] (setting [4]) is 22 pM; in experiment [1] (setting [5]), 15 pM; in experiment [1] (setting [6]) it was 18.2 pM; in experiment [2] (setting [7]), no less than 26 nM; in experiment [2] (setting [8]), no less than 26 nM; in experiment [3] (setting [9]), no less than 26 nM. Moreover, the EC50 in experiment [3] (setting [10]) was no less than 26 nM.
For `CCCCCCCCCCCCCCCCCC(=O)NCCOCCOCC(=O)NCCCC[C@H](NC(=O)[C@H](C)NC(=O)[C@H](C)NC(=O)[C@H](CCC(=O)O)NC(=O)CNC(=O)[C@H](CCC(=O)O)NC(=O)[C@H](CC(C)C)NC(=O)[C@](C)(Cc1ccccc1)NC(=O)[C@H](CO)NC(=O)[C@](C)(CO)NC(=O)[C@@H](NC(=O)[C@H](CC(=O)O)NC(=O)[C@H](CO)NC(=O)[C@@H](NC(=O)[C@](C)(Cc1ccccc1)NC(=O)[C@H](CO)NC(=O)CNC(=O)[C@H](CCC(=O)O)NC(=O)C(C)(C)NC(=O)[C@@H](N)Cc1c[nH]cn1)[C@@H](C)O)C(C)C)C(=O)N[C@@H](CCC(=O)O)C(=O)N[C@@](C)(Cc1ccccc1)C(=O)N[C@H](C(=O)N[C@@H](C)C(=O)N[C@@](C)(Cc1ccccc1)C(=O)N[C@H](C(=O)N[C@H](C(=O)N[C@@](C)(CCCCN)C(=O)NCC(=O)NCC(N)=O)C(C)C)C(C)C)[C@@H](C)CC` [compound 152], the EC50 in experiment [1] (setting [4]) is 39 pM; in experiment [1] (setting [5]) it was 31 pM; in experiment [1] (setting [6]), 34.7 pM; in experiment [2] (setting [7]) it was no less than 28 nM; in experiment [2] (setting [8]), no less than 28 nM; in experiment [3] (setting [9]), no less than 28 nM. Further, in experiment [3] (setting [10]), the EC50 was no less than 28 nM.
Regarding `CC[C@H](C)[C@H](NC(=O)[C@](C)(Cc1ccccc1)NC(=O)[C@H](CCC(=O)O)NC(=O)[C@H](CCCCNC(=O)CC[C@H](NC(=O)CCCCCCCCCCCCCCCCC(=O)O)C(=O)O)NC(=O)[C@H](C)NC(=O)[C@H](C)NC(=O)[C@H](CCC(=O)O)NC(=O)CNC(=O)[C@H](CCC(=O)O)NC(=O)[C@H](CC(C)C)NC(=O)[C@](C)(Cc1ccccc1)NC(=O)[C@H](CO)NC(=O)[C@](C)(CO)NC(=O)[C@@H](NC(=O)[C@H](CC(=O)O)NC(=O)[C@H](CO)NC(=O)[C@@H](NC(=O)[C@](C)(Cc1ccccc1)NC(=O)[C@H](CO)NC(=O)CNC(=O)[C@H](CCC(=O)O)NC(=O)C(C)(C)NC(=O)[C@@H](N)Cc1c[nH]cn1)[C@@H](C)O)C(C)C)C(=O)N[C@@H](C)C(=O)N[C@@](C)(Cc1ccccc1)C(=O)N[C@H](C(=O)N[C@H](C(=O)N[C@@](C)(CCCCN)C(=O)NCC(=O)NCC(N)=O)C(C)C)C(C)C` [compound 155], the EC50 is 290 pM in experiment [1] (setting [4]); 190 pM in experiment [1] (setting [5]); 238 pM in experiment [1] (setting [6]); no less than 28 nM in experiment [2] (setting [7]); no less than 28 nM in experiment [2] (setting [8]); no less than 28 nM in experiment [3] (setting [9]). Also, the EC50 in experiment [3] (setting [10]) was no less than 28 nM.
Consider `CC[C@H](C)[C@H](NC(=O)[C@](C)(Cc1ccccc1)NC(=O)[C@H](CCC(=O)O)NC(=O)[C@H](CCCCNC(=O)CC[C@H](NC(=O)CC[C@H](NC(=O)CC[C@H](NC(=O)CCCCCCCCCCCCCCCCC(=O)O)C(=O)O)C(=O)O)C(=O)O)NC(=O)[C@H](C)NC(=O)[C@H](C)NC(=O)[C@H](CCC(=O)O)NC(=O)CNC(=O)[C@H](CCC(=O)O)NC(=O)[C@H](CC(C)C)NC(=O)[C@](C)(Cc1ccccc1)NC(=O)[C@H](CO)NC(=O)[C@](C)(CO)NC(=O)[C@@H](NC(=O)[C@H](CC(=O)O)NC(=O)[C@H](CO)NC(=O)[C@@H](NC(=O)[C@](C)(Cc1ccccc1)NC(=O)[C@H](CO)NC(=O)CNC(=O)[C@H](CCC(=O)O)NC(=O)C(C)(C)NC(=O)[C@@H](N)Cc1c[nH]cn1)[C@@H](C)O)C(C)C)C(=O)N[C@@H](C)C(=O)N[C@@](C)(Cc1ccccc1)C(=O)N[C@H](C(=O)N[C@H](C(=O)N[C@@](C)(CCCCN)C(=O)NCC(=O)NCC(N)=O)C(C)C)C(C)C` [compound 157], for which the EC50 in experiment [1] (setting [4]) is 240 pM; in experiment [2] (setting [7]) it was no less than 26 nM; in experiment [2] (setting [8]), no less than 26 nM; in experiment [3] (setting [9]), no less than 26 nM; in experiment [3] (setting [10]) it was no less than 26 nM.
As to `CC[C@H](C)[C@H](NC(=O)[C@](C)(Cc1ccccc1)NC(=O)[C@H](CCC(=O)O)NC(=O)[C@H](CCCCNC(=O)CCCCCNC(=O)CCCCCNC(=O)CCCCCCCCCCCCCCCCC(=O)O)NC(=O)[C@H](C)NC(=O)[C@H](C)NC(=O)[C@H](CCC(=O)O)NC(=O)CNC(=O)[C@H](CCC(=O)O)NC(=O)[C@H](CC(C)C)NC(=O)[C@](C)(Cc1ccccc1)NC(=O)[C@H](CO)NC(=O)[C@](C)(CO)NC(=O)[C@@H](NC(=O)[C@H](CC(=O)O)NC(=O)[C@H](CO)NC(=O)[C@@H](NC(=O)[C@](C)(Cc1ccccc1)NC(=O)[C@H](CO)NC(=O)CNC(=O)[C@H](CCC(=O)O)NC(=O)C(C)(C)NC(=O)[C@@H](N)Cc1c[nH]cn1)[C@@H](C)O)C(C)C)C(=O)N[C@@H](C)C(=O)N[C@@](C)(Cc1ccccc1)C(=O)N[C@H](C(=O)N[C@H](C(=O)N[C@@](C)(CCCCN)C(=O)NCC(=O)NCC(N)=O)C(C)C)C(C)C` [compound 159], the EC50 in experiment [1] (setting [4]) was 280 pM; in experiment [1] (setting [5]) it was 230 pM; in experiment [1] (setting [6]) it was 254 pM; in experiment [2] (setting [7]), no less than 27 nM; in experiment [2] (setting [8]), no less than 27 nM; in experiment [3] (setting [9]), no less than 27 nM. The EC50 in experiment [3] (setting [10]) is no less than 27 nM.
